Experimental data taken from patent publication US5545625A, “Preventing conversion of citrulline to argininosuccinate to limit pathological nitric oxide overproduction” (The Medical College of Wisconsin Research Foundation, Inc., priority 1994, dated 1996).

Experiments:
Format in all cases: cell-based
[1] = tested on: rat aortic smooth muscle cells; experiment: Nitrite production (indicator of cellular NO synthesis) by LPS/interferon-gamma induced rat aortic smooth muscle cells (Examples IV, V); settings: 24 hours, FIG. 4
Description: Rat aortic smooth muscle cells were grown as described in Example I and were continuously treated with 30 μg/ml of bacterial lipopolysaccharide in combination with 50 ng/ml of interferongamma. Concentrations of mithramycin as indicated in FIG. 4 were added either simultaneously with immunostimulant (filled in circles in FIG. 4) or 4 hours later (open circles in FIG. 4).
Nitrite was used as an indicator of cellular NO synthesis and assay was carried out as described in Gross, S. S., et al, J. Biol. Chem. 267, 25722-25729 (1992). In the assay, cells were treated with serum- and arginine-free RPMI 1640 medium containing the desired test agents for 24 hours. The accumulation of nitrite in the cell culture medium was quantified colorimetrically after adding 100 μl of Griess reagent (1% sulfanilamide and 0.1% naphthalene diamine in 5% o-phosphoric acid) to an equal volume of sample.
Rat aortic smooth muscle cells were grown as described in Example I and were treated with 30 μg/ml of bacterial lipopolysaccharide in combination with 50 ng/ml of interferon-gamma. Concentrations of L-citrulline and L-arginine as indicated in FIG. 5 were added simultaneously with immunostimulant. Nitrite was used as an indicator of cellular NO synthesis and assay therefor was carried out as described in Example IV.

[2] = tested on: argininosuccinate synthetase; experiment: Argininosuccinate synthetase (AS) activity of rat aortic smooth muscle cells induced with LPS/interferon-gamma in presence of test agent (Example I); settings: mithramycin 0.001 to 10 μg/ml with LPS 30 μg/ml plus interferon-gamma 50 ng/ml, 24 hours; FIG. 1
Description: Aortic smooth muscle cells were cultured by explanting segments of the medial layer of aortae from adult male Fischer 344 rats. Aortae were removed aseptically and freed of adventitial and endothelial cells by scraping both the lumenal and abluminal surfaces. Medial fragments (1-2 mm) were allowed to attach to dry Primaria 25 cm^2 tissue culture flasks (Falcon; Oxnard, Calif.) which were kept moist with growth medium until cells emerged. Cultures were fed twice weekly with medium 199 containing 10% fetal bovine serum, 25 mM HEPES, 2 mM L-glutamine, 40 μg/ml endothelial cell growth supplement (Biomedical Technologies; Stoughton, Mass.) and 10 μg/ml gentamycin (GIBCO; Grand Island, N.Y.). When primary cultures became confluent, they were passaged by trypsinization and the explants were discarded. Cells in passage 10-15 were seeded at 20,000/well in 96-well plates. […]
Argininosuccinate synthetase activity was assayed based on the conversion of [^14 C]aspartate to [^14 C]argininosuccinate, as described in O'Brien, W. E., Biochemistry 18, 5353-5356, 1979, with the exception that aspartate was present at a concentration of 30 μm (0.021 μCi/nmol). […] Reactions were allowed to proceed for 90 minutes at 37° C before termination and quantification of the [^14 C]argininosuccinate formed, using ion exchange chromatography on Dowex 1-X8 (200-400 mesh, Bio-Rad).

[3] = tested on: nitric oxide synthase mRNA; experiment: RT-PCR of nitric oxide synthase mRNA in induced rat aortic smooth muscle cells (Example III); settings: LPS 30 μg/ml plus interferon-gamma 50 ng/ml with mithramycin, 6 hours; FIG. 3
Description: Rat aortic smooth muscle cells were grown as described in Example I and were treated with 30 μg/ml bacterial lipopolysaccharide in combination with 50 ng/ml interferon-gamma. […] RNA was extracted by a modified guanidinium isothiocyanate method (RNAzol; Cinna/Biotecz, Houston, Tex.). Reverse transcriptase-polymerase chain reaction was performed by standard methods using 1 μg of total RNA. This was followed by polymerase chain reaction amplification using synthetic gene-specific primers for rat argininosuccinate synthetase as described in Amaya, Y., et al, J. Biochem. (Tokyo) 103, 177-181 (1988), for argininosuccinate lyase as described in Surh, L. C., et al, Nucleic Acids Research, 16, 9352 (1988) and murine-inducible nitric oxide synthase as described in Lyons, C. R., et al, J. Biol. Chem. 267, 6370-6374 (1992). The primers are specifically described in Hattori, Y., et al, J. Biol. Chem. 269, 9405-9408 (1994). Polymerase chain reaction amplification was performed according to the following schedule: denaturation, annealing, and elongation at 95, 55 and 72° C. for 30 sec, 30 sec and 1 min, respectively, for 30 cycles. […] Polymerase chain reaction products were electrophoresed on a 1.5% agarose gel containing ethidium bromide and visualized by UV-induced fluorescence. […]

Structure (SMILES): COC(C(=O)C(O)C(C)O)C1Cc2cc3cc(OC4CC(OC5CC(O)C(O)C(C)O5)C(O)C(C)O4)c(C)c(O)c3c(O)c2C(=O)C1OC1CC(OC2CC(OC3CC(C)(O)C(O)C(C)O3)C(O)C(C)O2)C(O)C(C)O1 (stereo not shown) [mithramycin]
- nitrite accumulation in cell culture medium ([1]; mithramycin added 4 hours after immunostimulant): effectiveness to block NO production is markedly diminished
- nitrite accumulation in cell culture medium ([1]; mithramycin added simultaneously with immunostimulant): inhibits induction of NO synthetic activity but is not a direct inhibitor of argininosuccinate synthetase or nitric oxide synthase
- argininosuccinate synthetase activity [2]: as a function of its concentration blocks argininosuccinate synthetase activity
- gene transcription of nitric oxide synthase (mRNA level) [3]: inhibits gene transcription of argininosuccinate synthetase and nitric oxide synthase
